Data as given in PubChem BioAssay AID1963834 (Molecular Pharmacology Branch, DTP, NCI, 2024).

System: 873145-292-R-J1-PDC complex spheroid viability
Assay: Anticancer human tumor 873145-292-R-J1-PDC patient-derived renal clear cell carcinoma cell line growth inhibition [POLQ]
Conditions: for IC50: curve of first compound; for viability, T/C: stronger effect = lower value
In short: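 Complex spheroid viability model combining PDC tumour cells with endothelial (HUVEC) and MSC stromal cells. Novobiocin, ART-558 or RP6685 were tested singly and in combination with standard and investigational anticancer drugs. Each was titrated in half-log steps from near clinical Cmax, or from 10 microM where Cmax was unknown.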

[1] = second compound 0.0316 µM, first compound 0.0316 µM
[2] = second compound 0.0316 µM, first compound 0.1 µM
[3] = second compound 0.1 µM, first compound 0.0316 µM
[4] = second compound 0.1 µM, first compound 0.1 µM
[5] = second compound 0.316 µM, first compound 0.0316 µM
[6] = second compound 0.316 µM, first compound 0.1 µM
[7] = second compound 1 µM, first compound 0.0316 µM
[8] = second compound 1 µM, first compound 0.1 µM
[9] = second compound 3.16 µM, first compound 0.0316 µM
[10] = second compound 3.16 µM, first compound 0.1 µM
[11] = second compound 10 µM, first compound 0.0316 µM
[12] = second compound 10 µM, first compound 0.1 µM
[13] = second compound 0.0316 µM, first compound 0.316 µM
[14] = second compound 0.0316 µM, first compound 1 µM
[15] = second compound 0.0316 µM, first compound 3.16 µM
[16] = second compound 0.0316 µM, first compound 10 µM
[17] = second compound 0.1 µM, first compound 0.316 µM
[18] = second compound 0.1 µM, first compound 1 µM
[19] = second compound 0.1 µM, first compound 3.16 µM
[20] = second compound 0.1 µM, first compound 10 µM
[21] = second compound 0.316 µM, first compound 0.316 µM
[22] = second compound 0.316 µM, first compound 1 µM
[23] = second compound 0.316 µM, first compound 3.16 µM
[24] = second compound 0.316 µM, first compound 10 µM
[25] = second compound 1 µM, first compound 0.316 µM
[26] = second compound 1 µM, first compound 1 µM
[27] = second compound 1 µM, first compound 3.16 µM
[28] = second compound 1 µM, first compound 10 µM
[29] = second compound 3.16 µM, first compound 0.316 µM
[30] = second compound 3.16 µM, first compound 1 µM
[31] = second compound 3.16 µM, first compound 3.16 µM
[32] = second compound 3.16 µM, first compound 10 µM
[33] = second compound 10 µM, first compound 0.316 µM
[34] = second compound 10 µM, first compound 1 µM
[35] = second compound 10 µM, first compound 3.16 µM
[36] = second compound 10 µM, first compound 10 µM
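Further: spheroids exposed to compounds for 7 days before viability readout.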
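Wherever viability, T/C is given: luminescence signal used as surrogate for viable cell content; 100% = DMSO vehicle control viability.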

Cn1ncnc1[C@H]1c2n[nH]c(=O)c3cc(F)cc(c23)N[C@@H]1c1ccc(F)cc1 + Nc1ccc(C#CCN(C(=O)Cc2ncc(C(F)(F)F)cc2C(F)(F)F)c2ccc(F)cc2)nn1
IC50 (second compound 0.0316 µM): > 0.1 µM
IC50 (second compound 0.1 µM): > 0.1 µM
IC50 (second compound 0.316 µM): > 0.1 µM
IC50 (second compound 1 µM): > 0.1 µM
IC50 (second compound 3.16 µM): > 0.1 µM
IC50 (second compound 10 µM): > 0.1 µM
viability, T/C (second compound 0.0316 µM, first compound 0.000316 µM): 124%
viability, T/C (second compound 0.0316 µM, first compound 0.001 µM): 103%
viability, T/C (second compound 0.0316 µM, first compound 0.00316 µM): 90.9%
viability, T/C (second compound 0.0316 µM, first compound 0.01 µM): 99.3%
viability, T/C [1]: 106%
viability, T/C [2]: 104%
viability, T/C (second compound 0.1 µM, first compound 0.000316 µM): 105%
viability, T/C (second compound 0.1 µM, first compound 0.001 µM): 99.3%
viability, T/C (second compound 0.1 µM, first compound 0.00316 µM): 107%
viability, T/C (second compound 0.1 µM, first compound 0.01 µM): 91.8%
viability, T/C [3]: 102%
viability, T/C [4]: 99.6%
viability, T/C (second compound 0.316 µM, first compound 0.000316 µM): 97%
viability, T/C (second compound 0.316 µM, first compound 0.001 µM): 108%
viability, T/C (second compound 0.316 µM, first compound 0.00316 µM): 99.2%
viability, T/C (second compound 0.316 µM, first compound 0.01 µM): 96.7%
viability, T/C [5]: 98.8%
viability, T/C [6]: 96.8%
viability, T/C (second compound 1 µM, first compound 0.000316 µM): 94.9%
viability, T/C (second compound 1 µM, first compound 0.001 µM): 100%
viability, T/C (second compound 1 µM, first compound 0.00316 µM): 96.1%
viability, T/C (second compound 1 µM, first compound 0.01 µM): 97.1%
viability, T/C [7]: 95.9%
viability, T/C [8]: 96.3%
viability, T/C (second compound 3.16 µM, first compound 0.000316 µM): 92.1%
viability, T/C (second compound 3.16 µM, first compound 0.001 µM): 108%
viability, T/C (second compound 3.16 µM, first compound 0.00316 µM): 97.2%
viability, T/C (second compound 3.16 µM, first compound 0.01 µM): 95.3%
viability, T/C [9]: 95.8%
viability, T/C [10]: 95.8%
viability, T/C (second compound 10 µM, first compound 0.000316 µM): 107%
viability, T/C (second compound 10 µM, first compound 0.001 µM): 110%
viability, T/C (second compound 10 µM, first compound 0.00316 µM): 108%
viability, T/C (second compound 10 µM, first compound 0.01 µM): 117%
viability, T/C [11]: 107%
viability, T/C [12]: 103%

Nc1ccn(C2OC(CO)C(O)C2(F)F)c(=O)n1 (stereo unspecified) + Nc1ccc(C#CCN(C(=O)Cc2ncc(C(F)(F)F)cc2C(F)(F)F)c2ccc(F)cc2)nn1
IC50 (second compound 0.0316 µM): > 10 µM
IC50 (second compound 0.1 µM): > 10 µM
IC50 (second compound 0.316 µM): 10 µM
IC50 (second compound 1 µM): > 10 µM
IC50 (second compound 3.16 µM): > 10 µM
IC50 (second compound 10 µM): > 10 µM
viability, T/C [1]: 70.6%
viability, T/C [2]: 72.4%
viability, T/C [13]: 61%
viability, T/C [14]: 56.2%
viability, T/C [15]: 58.5%
viability, T/C [16]: 55.8%
viability, T/C [3]: 71.6%
viability, T/C [4]: 70.2%
viability, T/C [17]: 57.3%
viability, T/C [18]: 54.5%
viability, T/C [19]: 49.5%
viability, T/C [20]: 51.7%
viability, T/C [5]: 73.8%
viability, T/C [6]: 80.5%
viability, T/C [21]: 52.6%
viability, T/C [22]: 54.8%
viability, T/C [23]: 59.1%
viability, T/C [24]: 53.4%
viability, T/C [7]: 67.7%
viability, T/C [8]: 65.8%
viability, T/C [25]: 61.8%
viability, T/C [26]: 70.3%
viability, T/C [27]: 55.6%
viability, T/C [28]: 51.7%
viability, T/C [9]: 72.9%
viability, T/C [10]: 66.6%
viability, T/C [29]: 73.7%
viability, T/C [30]: 64.2%
viability, T/C [31]: 54.5%
viability, T/C [32]: 63%
viability, T/C [11]: 82.7%
viability, T/C [12]: 67.6%
viability, T/C [33]: 61.4%
viability, T/C [34]: 62.1%
viability, T/C [35]: 59.4%
viability, T/C [36]: 67.2%

O=C(c1cc(Cc2n[nH]c(=O)c3ccccc23)ccc1F)N1CCN(C(=O)C2CC2)CC1 + Nc1ccc(C#CCN(C(=O)Cc2ncc(C(F)(F)F)cc2C(F)(F)F)c2ccc(F)cc2)nn1
IC50 (second compound 0.0316 µM): > 10 µM
IC50 (second compound 0.1 µM): > 10 µM
IC50 (second compound 0.316 µM): > 10 µM
IC50 (second compound 1 µM): > 10 µM
IC50 (second compound 3.16 µM): > 10 µM
IC50 (second compound 10 µM): > 10 µM
viability, T/C [1]: 98.5%
viability, T/C [2]: 110%
viability, T/C [13]: 101%
viability, T/C [14]: 106%
viability, T/C [15]: 107%
viability, T/C [16]: 108%
viability, T/C [3]: 112%
viability, T/C [4]: 118%
viability, T/C [17]: 103%
viability, T/C [18]: 102%
viability, T/C [19]: 98.1%
viability, T/C [20]: 96.2%
viability, T/C [5]: 96.4%
viability, T/C [6]: 114%
viability, T/C [21]: 114%
viability, T/C [22]: 105%
viability, T/C [23]: 93.8%
viability, T/C [24]: 103%
viability, T/C [7]: 98.4%
viability, T/C [8]: 105%
viability, T/C [25]: 114%
viability, T/C [26]: 117%
viability, T/C [27]: 104%
viability, T/C [28]: 88.6%
viability, T/C [9]: 104%
viability, T/C [10]: 114%
viability, T/C [29]: 115%
viability, T/C [30]: 110%
viability, T/C [31]: 96.2%
viability, T/C [32]: 104%
viability, T/C [11]: 101%
viability, T/C [12]: 105%
viability, T/C [33]: 106%
viability, T/C [34]: 109%
viability, T/C [35]: 100%
viability, T/C [36]: 101%
